Test results as given in the PolyMetriX glass transition set.
± gives the standard deviation of the reports.

glass transition temperature [°C]	Compound
366.00	*Nc1c(C)c(C)c(C(=O)c2ccc(NC(=O)c3ccc(C(*)=O)cc3)cc2)c(C)c1C (repeat unit)
128.00	*Oc1ccc(C(C)(CC(C)C)c2ccc(OC(*)=S)cc2)cc1 (repeat unit)
190.00	*Oc1ccc(S(=O)(=O)c2ccc(Oc3ccc(/C=C4\CCC/C(=C\c5ccc(*)cc5)C4=O)cc3)cc2)cc1 (repeat unit)
233.00	*Nc1cc(NC(=O)c2ccc(C(*)=O)cc2)cc(C(=O)OCCOc2ccc(/C=C/C(=O)c3ccccc3)cc2)c1 (repeat unit)
238.00	*C(=O)c1ccc2c(c1)C(=O)N(c1ccc(-c3ccc(NC(=O)c4cccc(C(=O)Nc5ccc(-c6ccc(N7C(=O)c8ccc(*)cc8C7=O)cc6)cc5)c4)cc3)cc1)C2=O (repeat unit)
164.00	*Oc1ccc2ccc(Oc3ccc(C(=O)Nc4cccc(Oc5ccc(NC(=O)c6ccc(*)cc6)cc5)c4)cc3)cc2c1 (repeat unit)
132.00	*Oc1c(C(C)C)cc(C(=O)c2cccc(C(=O)c3ccc(*)cc3)c2)cc1C(C)C (repeat unit)
40.00	*CC(*)(C)C(=O)OCCCCCCOc1ccc(C(=O)Oc2ccc(/N=N/c3ccc(I)cc3)c3ccccc23)cc1 (repeat unit)
51.00	*Oc1ccc(CC(NC(=O)Cc2ccc(OC(=O)CCC(*)=O)cc2)C(=O)OCCCCCCCC)cc1 (repeat unit)
220.00	*CC(=O)Nc1ccc(Oc2cccc(Oc3ccc(NC(=O)c4ccc5c(c4)C(=O)N(*)C5=O)cc3)c2)cc1 (repeat unit)
360.00	*c1ccc(C(=O)Nc2ccc(Oc3ccc(NC(=O)c4ccc(-n5c(=O)c6cc7c(=O)n(*)c(=O)c7cc6c5=O)cc4)cc3)cc2)cc1 (repeat unit)
192.00	*Nc1cc(NC(=O)c2ccc(C(*)=O)cc2)cc(C(=O)Oc2cccc3ccccc23)c1 (repeat unit)
204.00	*c1cccc(Oc2ccc(Oc3cccc(N4C(=O)c5ccc(Oc6ccc7c(c6)C(=O)N(*)C7=O)cc5C4=O)c3)cc2)c1 (repeat unit)
51.00	*CC(*)(C)C(=O)OCCCCCCOc1ccc(OC(=O)c2ccc(OC)c(Br)c2)cc1 (repeat unit)
163.00	*CCOCCOCCOCCOc1ccc(C(=O)Nc2cc(NC(=O)c3ccc(O*)cc3)cc(-c3nc4ccccc4[nH]3)c2)cc1 (repeat unit)
337.00	*c1ccc(NC(=O)c2ccc(NC(=O)c3ccc([Si](C)(C)c4ccc(C(=O)Nc5ccc(C(=O)Nc6ccc(-c7sc(*)c(-c8ccccc8)c7-c7ccccc7)cc6)cc5)cc4)cc3)cc2)cc1 (repeat unit)
5.10	*[O][Ca][O]C(=O)c1ccccc1C(=O)OCCCCCOC(=O)Nc1cc(NC(=O)OCCCCCOC(=O)c2ccccc2C(*)=O)ccc1C (repeat unit)
143.00	*Oc1ccc(CC(C#N)(Cc2ccc(*)cc2)c2ccccc2)cc1 (repeat unit)
84.00	*CC(O)CN(C)S(=O)(=O)c1ccc(-c2ccc(S(=O)(=O)N(C)CC(O)COc3ccc(O*)cc3)cc2)cc1 (repeat unit)
130.00	*CCCCCCCCCCCCNC(=O)c1ccc(C(=O)N*)cc1 (repeat unit)
15.50	*Oc1ccc(CC(NC(=O)CCc2ccc(OC(=O)CCCCCCCCC(*)=O)cc2)C(=O)OCCCCCCCC)cc1 (repeat unit)
217.00	*Oc1ccc(C2(c3ccc(Oc4ccc(C(=O)c5cccc(C(=O)c6ccc(*)cc6)c5)cc4)c(C)c3)c3ccccc3-c3ccccc32)cc1C (repeat unit)

Second part, the compound before the results:

Compound	glass transition temperature [°C]
*c1ccc(Sc2ccc(Sc3ccc(Sc4ccc(N5C(=O)c6ccc(-c7ccc8c(c7)C(=O)N(*)C8=O)cc6C5=O)cc4)cc3)cc2)cc1 (repeat unit)	227.10
*C(=O)c1ccc2c(c1)C(=O)N(c1cccc(Cc3ccc(Cc4ccc(Cc5cccc(N6C(=O)c7ccc(*)cc7C6=O)c5)cc4)cc3)c1)C2=O (repeat unit)	235.50
*c1cc(C(=O)NCCCCCCCCCCCCCC)cc(N2C(=O)c3ccc(-c4ccc5c(c4)C(=O)N(*)C5=O)cc3C2=O)c1 (repeat unit)	247.60
*O[Si](*)(C)CCCn1c2ccccc2c2ccccc21 (repeat unit)	55.5
*/C=C(\C#N)C(=O)OCCCCCCOC(=O)/C(C#N)=C/c1ccc2c(c1)c1cc(*)ccc1n2CCCCCCC (repeat unit)	87.00
*CC(*)C(=O)OCC(F)(F)C(F)(F)F (repeat unit)	-26.00
*CC(C)(C)COC(=O)C1CCC(C(=O)O*)CC1 (repeat unit)	30.00
*c1ccc2c(c1)C(=O)N(C1CCC(N3C(=O)c4ccc(C(*)(C(F)(F)F)C(F)(F)F)cc4C3=O)CC1)C2=O (repeat unit)	346.50
*CC(CS(=O)(=O)CCCC)O* (repeat unit)	37.00
*CCN(CCOC(=O)NCCCCCCNC(=O)O*)c1ccccc1 (repeat unit)	31.90
*c1[nH]c(*)c(OC)c1OC (repeat unit)	-26.00
*ON(C(F)(F)F)C(F)(F)C(*)(F)F (repeat unit)	-46.00
*CC(*)(C)C(=O)OCCN(C)c1ccc(N(C)C)cc1 (repeat unit)	43.00
*CC(*)NC=O (repeat unit)	150.00
*CC(*)(F)C(=O)OCC(F)(F)C(F)(F)C(F)(F)F (repeat unit)	75.00
*c1ccc(Cc2ccc(N3C(=O)c4ccc(Oc5ccc(C6(c7ccc(Oc8ccc9c(c8)C(=O)N(*)C9=O)cc7)CCC(c7ccccc7)CC6)cc5)cc4C3=O)cc2)cc1 (repeat unit)	232.00
*[CH2][Ge]([CH3])([CH3])[CH2]c1cocc1* (repeat unit)	-28.00
*CC(*)c1ccc(-c2ccc3c(c2)C(CCCCCC)(CCCCCC)c2cc(-c4ccc5c(c4)C(CCCCCC)(CCCCCC)c4ccccc4-5)ccc2-3)cc1 (repeat unit)	78.60
*c1cccc(S(=O)(=O)c2cccc(N3C(=O)c4ccc(Oc5ccc(S(=O)(=O)c6ccc(Oc7ccc8c(c7)C(=O)N(*)C8=O)cc6)cc5)cc4C3=O)c2)c1 (repeat unit)	205.00
*CC(*)c1ccccc1COC (repeat unit)	89.00
*CC(*)(C)C(=O)OCC(=O)N1CCCC1 (repeat unit)	144.00
*CC(*)(C)C(=O)Oc1ccc(C(=O)/C=C/c2ccc(OC)c(OC)c2)cc1 (repeat unit)	137.00
*CC(*)c1ccccc1 (repeat unit) [atactic polystyrene]	95.96 ± 28
*C/C=C/COC(=O)NCCCCCCNC(=O)O* (repeat unit)	-39.00
*CC(*)c1ccccc1C(=O)OCCCCC (repeat unit)	92.00
*c1ccc(C2(c3ccc(-c4cc(-c5ccccc5)c5cc(-c6ccc7nc(*)cc(-c8ccccc8)c7c6)ccc5n4)cc3)c3ccccc3C(=O)c3ccccc32)cc1 (repeat unit)	417.00
